This note sets out measurements from patent publication US20210300936A1, “PYRAZOLOTRIAZOLOPYRIMIDINE DERIVATIVES AS A2A RECEPTOR ANTAGONIST” (BEIGENE, LTD., priority 2018, published 2021).

SMILES strings stand for the structures.

The target in the assay is human A2A receptor (A2AR) (Homo sapiens, UniProt P29274). In words: Luciferase reporter assay (HEK293-A2AR-luc2p/CRE/Hygro cells, 3 nM CGS21680). The conditions noted are these: 3 nM CGS21680, 5 h incubation. The format is cell-based. The essentials:
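HEK293 cells stably expressing A2AR with a CRE-luc2P reporter were seeded in 1% FBS with 1 U/mL adenosine deaminase. After 18 h, cells got 3 nM CGS21680 plus antagonist at 0.1–10000 nM for 5 h, followed by a luciferase readout. IC50 is relative to the 3 nM CGS21680 signal, set as 100%.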

Sequence of human A2A receptor (A2AR) (P29274 whole entry): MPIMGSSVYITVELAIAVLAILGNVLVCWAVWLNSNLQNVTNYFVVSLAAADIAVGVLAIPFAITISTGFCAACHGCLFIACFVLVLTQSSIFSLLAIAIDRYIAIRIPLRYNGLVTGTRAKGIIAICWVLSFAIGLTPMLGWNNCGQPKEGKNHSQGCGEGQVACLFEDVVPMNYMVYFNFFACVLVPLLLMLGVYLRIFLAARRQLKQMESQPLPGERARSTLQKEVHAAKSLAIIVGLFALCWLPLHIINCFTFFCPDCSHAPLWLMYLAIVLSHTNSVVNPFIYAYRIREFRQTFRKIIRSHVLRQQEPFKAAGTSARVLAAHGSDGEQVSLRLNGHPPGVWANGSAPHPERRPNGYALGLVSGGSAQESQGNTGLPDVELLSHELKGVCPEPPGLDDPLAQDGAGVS

As a reminder, the IC50 is the concentration that inhibits the measured activity by half. A high value points to lower potency. For `COCCOc1ccc(N2CCN(C(=O)C(C)(C)n3ncc4c3nc(N)n3nc(-c5ccco5)nc43)CC2)cc1` [Compound A3, 2-(5-amino-2-(furan-2-yl)-7H-pyrazolo[4,3-e][1,2,4]triazolo[1,5-c]pyrimidin-7-yl)-1-(4-(4-(2-methoxyethoxy)phenyl)piperazin-1-yl)-2-methylpropan-1-one], inhibition was half-maximal at 362 nM (IC50).
In the case of `CC(O)COc1ccc(N2CCN(C(=O)C(c3ccccc3)n3ncc4c3nc(N)n3nc(-c5ccco5)nc43)CC2)cc1` (stereo not shown) [Compound A62, 2-(5-amino-2-(furan-2-yl)-7H-pyrazolo[4,3-e][1,2,4]triazolo[1,5-c]pyrimidin-7-yl)-1-(4-(4-(2-hydroxypropoxy)phenyl)piperazin-1-yl)-2-phenylethan-1-one], the IC50 was 1.3 nM.
Consider `C[C@](C(=O)N1CCN(c2ccc(OCCCN3CCOCC3)cc2)CC1)(c1ccccc1)n1ncc2c1nc(N)n1nc(-c3ccco3)nc21` [Compound A76b, (R)-2-(5-amino-2-(furan-2-yl)-7H-pyrazolo[4,3-e][1,2,4]triazolo[1,5-c]pyrimidin-7-yl)-1-(4-(4-(3-morpholinopropoxy)phenyl)piperazin-1-yl)-2-phenylpropan-1-one], for which the IC50 turned out to be 3.9 nM.
The value for `CO[C@@H]1CCN(C(=O)C(C)(c2ccccc2)n2ncc3c2nc(N)n2nc(-c4ccco4)nc32)C1` (stereo partly drawn) [Compound B30, 2-(5-amino-2-(furan-2-yl)-7H-pyrazolo[4,3-e][1,2,4]triazolo[1,5-c]pyrimidin-7-yl)-1-((R)-3-methoxypyrrolidin-1-yl)-2-phenylpropan-1-one] was 97.3 nM; that for `COCCOc1ccc(N2CCN(C(=O)C(C3CC3)n3cc4c(nc(N)n5nc(-c6ccco6)nc45)n3)CC2)cc1` (stereo not shown) [Compound C16, 2-(5-amino-2-(furan-2-yl)-8H-pyrazolo[4,3-e][1,2,4]triazolo[1,5-c]pyrimidin-8-yl)-2-cyclopropyl-1-(4-(4-(2-methoxyethoxy)phenyl)piperazin-1-yl)ethan-1-one] was 4.9 nM.
Compound `COCCOc1ccc(N2CCN(C(=O)[C@](C)(c3ccccc3)n3ncc4c3nc(N)n3nc(-c5ccco5)nc43)CC2)c(F)c1` [Compound A64a, (S)-2-(5-amino-2-(furan-2-yl)-7H-pyrazolo[4,3-e][1,2,4]triazolo[1,5-c]pyrimidin-7-yl)-1-(4-(2-fluoro-4-(2-methoxyethoxy)phenyl)piperazin-1-yl)-2-phenylpropan-1-one] yielded an IC50 of 17.5 nM. Against the preceding compound, the IC50 is about 3.6-fold higher.
The value for `COc1cccc(N2CCN(C(=O)C(C)(c3ccccc3)n3ncc4c3nc(N)n3nc(-c5ccco5)nc43)CC2)c1` (stereo not shown) [Compound A77, 2-(5-amino-2-(furan-2-yl)-7H-pyrazolo[4,3-e][1,2,4]triazolo[1,5-c]pyrimidin-7-yl)-1-(4-(3-methoxyphenyl)piperazin-1-yl)-2-phenylpropan-1-one] was 4.2 nM.
The value for `COCCOc1ccc(N2CCN(C(=O)C(c3ccc4ccccc4c3)n3ncc4c3nc(N)n3nc(-c5ccco5)nc43)CC2)cc1` (stereo not shown) [Compound A33, 2-(5-amino-2-(furan-2-yl)-7H-pyrazolo[4,3-e][1,2,4]triazolo[1,5-c]pyrimidin-7-yl)-1-(4-(4-(2-methoxyethoxy)phenyl)piperazin-1-yl)-2-(naphthalen-2-yl)ethan-1-one] was 13.3 nM.
With `Nc1nc2c(cnn2C(C(=O)N2CCc3ncccc3C2)c2ccccc2)c2nc(-c3ccco3)nn12` (stereo not shown) [Compound B13, 2-(5-amino-2-(furan-2-yl)-7H-pyrazolo[4,3-e][1,2,4]triazolo[1,5-c]pyrimidin-7-yl)-1-(7,8-dihydro-1,6-naphthyridin-6(5H)-yl)-2-phenylethan-1-one], 2.8 nM corresponded to half-maximal inhibition (IC50).
In the case of `Nc1nc2c(cnn2C(C(=O)N2CCc3cc(F)ccc3C2)c2ccccc2)c2nc(-c3ccco3)nn12` (stereo not shown) [Compound B7, 2-(5-amino-2-(furan-2-yl)-7H-pyrazolo[4,3-e][1,2,4]triazolo[1,5-c]pyrimidin-7-yl)-1-(6-fluoro-3,4-dihydroisoquinolin-2(1H)-yl)-2-phenylethan-1-one], half-maximal inhibition (IC50) required 2 nM.
Turning to `COCCOc1ccc(N2CCN(C(=O)C(c3ccccc3)n3ncc4c3nc(N)n3nc(-c5ccco5)nc43)CC2C)cc1` (single isomer, unassigned) [Compound A46a], the IC50 was 67.4 nM.
The value for `CO[C@H]1CCN(C(=O)C(C)(c2ccccc2)n2ncc3c2nc(N)n2nc(-c4ccco4)nc32)C1` (stereo partly drawn) [Compound B29, 2-(5-amino-2-(furan-2-yl)-7H-pyrazolo[4,3-e][1,2,4]triazolo[1,5-c]pyrimidin-7-yl)-1-((S)-3-methoxypyrrolidin-1-yl)-2-phenylpropan-1-one] was 76.5 nM; that for `COCCOCCOc1ccc(N2CCN(C(=O)C(C(C)C)n3ncc4c3nc(N)n3nc(-c5ccco5)nc43)CC2)cc1` (stereo not shown) [Compound A12, 2-(5-amino-2-(furan-2-yl)-7H-pyrazolo[4,3-e][1,2,4]triazolo[1,5-c]pyrimidin-7-yl)-1-(4-(4-(2-(2-methoxyethoxy)ethoxy)phenyl)piperazin-1-yl)-3-methylbutan-1-one] was 113 nM; that for `CC(C(=O)N1CCN(c2ccc(OCCCN3CCCC3)cc2)CC1)(c1ccccc1)n1ncc2c1nc(N)n1nc(-c3ccco3)nc21` (stereo not shown) [Compound A79, 2-(5-amino-2-(furan-2-yl)-7H-pyrazolo[4,3-e][1,2,4]triazolo[1,5-c]pyrimidin-7-yl)-2-phenyl-1-(4-(4-(3-(pyrrolidin-1-yl)propoxy)phenyl)piperazin-1-yl)propan-1-one] was 7.1 nM.
The value for `COCCOc1ccc(N2CCN(C(=O)C(c3ccccc3)n3ncc4c3nc(N)n3nc(-c5ccco5)nc43)CC2C)cc1` (single isomer, unassigned) [Compound A46b] was 0.9 nM; that for `CCC(C(=O)N1CCN(c2ccc(OCCOCCOC)cc2)CC1)n1cc2c(nc(N)n3nc(-c4ccco4)nc23)n1` (stereo not shown) [Compound C8, 2-(5-amino-2-(furan-2-yl)-8H-pyrazolo[4,3-e][1,2,4]triazolo[1,5-c]pyrimidin-8-yl)-1-(4-(4-(2-(2-methoxyethoxy)ethoxy)phenyl)piperazin-1-yl)butan-1-one] was 243 nM.
The value for `CC(C(=O)N1CC2(COC2)C1)(c1ccccc1)n1ncc2c1nc(N)n1nc(-c3ccco3)nc21` (stereo not shown) [Compound B22, 2-(5-amino-2-(furan-2-yl)-7H-pyrazolo[4,3-e][1,2,4]triazolo[1,5-c]pyrimidin-7-yl)-2-phenyl-1-(2-oxa-6-azaspiro[3.3]heptan-6-yl)propan-1-one] was 16 nM.
`COCCOc1ccc(N2CCN(C(=O)C(C)(C)n3cc4c(nc(N)n5nc(-c6ccco6)nc45)n3)CC2)cc1` [Compound C3, 2-(5-amino-2-(furan-2-yl)-8H-pyrazolo[4,3-e][1,2,4]triazolo[1,5-c]pyrimidin-8-yl)-1-(4-(4-(2-methoxyethoxy)phenyl)piperazin-1-yl)-2-methylpropan-1-one] yielded an IC50 of 1870 nM.
The compound `COCCOc1ccc(N2CCN(C(=O)C(CC(C)C)n3ncc4c3nc(N)n3nc(-c5ccco5)nc43)CC2)cc1` (stereo not shown) [Compound A16, 2-(5-amino-2-(furan-2-yl)-7H-pyrazolo[4,3-e][1,2,4]triazolo[1,5-c]pyrimidin-7-yl)-1-(4-(4-(2-methoxyethoxy)phenyl)piperazin-1-yl)-4-methylpentan-1-one] gave an IC50 of 1.3 nM.
